Laboratory results as given in patent publication US8232248B2, “Treatment of rheumatoid arthritis with mammal beta defensins” (Novozymes Adenium Biotech A/S, priority 2008, dated 2012).
Where no end group is shown, it is not given here.

Tests used:
[1] = test system: TNF production from human peripheral blood mononuclear cells (PBMC); assay: TNF production from PBMC stimulated with LPS, LTA, PGN or Pam3CSK4, 24 h, Cytometric Bead Array; format: cell-based; conditions: for TNF % of control / TNF: Table 18
Method: (§1) Peripheral blood was drawn from healthy volunteers (with approval from the relevant ethical committee in Denmark). Heparinized blood was diluted 1/1 v/v with RPMI and were subjected to Ficoll density centrifugation within 2 h of drawing. Plasma was collected from the top from individual donors and was kept on ice until it was used at 2% in the culture medium (autologous culture medium). Isolated PBMC were resuspended in autologous culture medium and seeded in 96-well culture plates with 255.000 cells per well in a total of 200 μl. […] The concentrations used for stimulation were optimized on 3 different donors in initial experiments, for LPS two different concentrations were used to be sure to be on a cytokine level that is possible to modulate. In some experiments PBMC were treated with Dexamethason and Indomethacin alone and together with LPS or LTA as a control on downregulation of inflammatory cytokines. The supernatants were collected after incubation at 37° C. for 24 hours, and stored at −80° C. until cytokine measurement. Viability was measured by Alamar Blue (Biosource, DALL 1100) in all experiments and in some cases also by MTS (Promega) according to manufacturer's instruction and was in some experiments also judged by counting of the cells by a Nucleocounter.
(§2) Cytokine production in supernatants was measured by flow cytometry with a human inflammation cytometric bead array (CBA) according to manufacturer's instructions (BD) on a FACSarray flow cytometer. The following cytokines were measured: IL-8, IL-1β, IL-10, TNF, IL-12 p70, IL-6. In some experiments, cytokines were measured by ELISA kits from R&D systems (IL-10, TNF-α, IL-1β) according to the manufacturer' instruction.
(§3) All experiments were performed at least twice, with representative results shown. The data presented are expressed as mean plus/minus standard deviation (SD). […] Differences were considered significant for p<0.05.
Example 3 was carried out essentially as described in Example 2. […]

[2] = test system: TNF production from mouse peripheral blood mononuclear cells (PBMC); assay: TNF production from mouse PBMC, mouse inflammation CBA; format: cell-based
Method: Mouse peripheral blood mononuclear cells were isolated from blood of ten NMRI mice. In short, heparinized blood was diluted 1/1 v/v with RPMI and subjected to Ficoll density centrifugation within 2 h of drawing. Plasma was collected from the top and discarded. Isolated PBMC were resuspended in culture medium (RPMI 1640 (Gibco, 42401) w/1% penicillin and streptomycin and 1% L-Glutamine) and seeded in 96-well culture plates with 115.500 cells per well in a total of 200 μl. […] The supernatants were collected after incubation at 37° C. for 24 hours, and stored at −80° C. until cytokine measurement.
Cytokine production in supernatants was measured by flow cytometry with a mouse inflammation cytometric bead array (CBA) according to manufacturer's instructions (BD) on a FACSarray flow cytometer.

[3] = test system: IL-1β production from human peripheral blood mononuclear cells (PBMC); assay: IL-1β production from PBMC stimulated with LPS or LTA, 24 h, Cytometric Bead Array; format: cell-based; conditions: Table 20
Method: as §1, §2, §3

[4] = test system: IL-10 production from human peripheral blood mononuclear cells (PBMC); assay: IL-10 production from PBMC stimulated with LPS, LTA or PGN, 24 h, Cytometric Bead Array; format: cell-based; conditions: Table 19
Method: as §1, §2, §3

[5] = test system: IL-23, human PBMC; assay: IL-23 in supernatants of human PBMC, ELISA; format: cell-based; conditions: Infliximab 1 μg/ml
Method: as §1
Moreover, the effect of rhBD2 on human monocyte-derived dendritic cells was also investigated.
Cell culture supernatants were collected and stored at −80° C. Amounts of IL-23 was measured by standard sandwich ELISA using commercially available antibodies and standards according to the manufacturer's protocols (eBioscience).
All experiments were performed at least twice, with representative results shown. The data presented are expressed as mean plus/minus standard deviation […]. […] Differences were considered significant for p<0.05.

[6] = test system: PBMC; assay: PBMC viability, Alamar Blue; format: cell-based, human; conditions: 10 μg/ml and 40 μg/ml
Method: as §1

[7] = positive control, concentration not given, LPS 0.6 ng/ml
[8] = positive control, concentration not given, LPS 20 ng/ml
[9] = positive control, concentration not given, Medium, non-treated 0
[10] = test compound 1 μg/ml, LPS 0.6 ng/ml
[11] = test compound 1 μg/ml, LPS 0.6 ng/ml, non-treated 741
[12] = test compound 1 μg/ml, LPS 20 ng/ml
[13] = test compound 1 μg/ml, LPS 20 ng/ml, non-treated 2544
[14] = test compound 1 μg/ml, Medium, non-treated 0
[15] = test compound 10 μg/ml, LPS 0.6 ng/ml
[16] = test compound 10 μg/ml, LPS 20 ng/ml
[17] = test compound 10 μg/ml, Medium, non-treated 0
[18] = test compound 40 μg/ml, LPS 0.6 ng/ml
[19] = test compound 40 μg/ml, LPS 20 ng/ml
[20] = test compound 40 μg/ml, Medium, non-treated 0
[21] = test compound 1 μg/ml, LPS 0.6 ng/ml, non-treated 728
[22] = test compound 1 μg/ml, LPS 20 ng/ml, non-treated 2164
[23] = test compound 1 μg/ml, Medium, non-treated 1
[24] = test compound 1 μg/ml, LPS 0.6 ng/ml, non-treated 66

## COc1ccc2c(c1)c(CC(=O)O)c(C)n2C(=O)c1ccc(Cl)cc1 [Indomethacin, reference compound]
[1]; PBMC stimulated with LPS or LTA, Table 13
  TNF inhibition (positive controls): only inhibited TNF (Table 13) after stimulation with LTA

## Infliximab: anti-inflammatory compound included as positive control on downregulation of TNF [reference compound]
[2]; Infliximab 1 μg/ml, LPS 20 ng/ml, untreated 2063
  TNF: 2119 pg/mL
[2]; Infliximab 1 μg/ml, Medium, untreated 578
  TNF: 530 pg/mL
[3]; [7]
  IL-1β % of control: 86%
[3]; positive control, concentration not given, LPS 0.6 ng/ml, non-treated 741
  IL-1β: 636 pg/mL
[3]; [8]
  IL-1β % of control: 106%
[3]; positive control, concentration not given, LPS 20 ng/ml, non-treated 2544
  IL-1β: 2704 pg/mL
[3]; [9]
  IL-1β: 0 pg/mL
[1]; [7]
  TNF % of control: 0%
[1]; positive control, concentration not given, LPS 0.6 ng/ml, non-treated 728
  TNF: 0 pg/mL
[1]; [8]
  TNF % of control: 0%
[1]; positive control, concentration not given, LPS 20 ng/ml, non-treated 2164
  TNF: 0 pg/mL
[1]; positive control, concentration not given, Medium, non-treated 1
  TNF: 0 pg/mL
[4]; [7]
  IL-10 % of control: 69%
[4]; positive control, concentration not given, LPS 0.6 ng/ml, non-treated 66
  IL-10: 46 pg/mL
[4]; [8]
  IL-10 % of control: 56%
[4]; positive control, concentration not given, LPS 20 ng/ml, non-treated 111
  IL-10: 63 pg/mL
[4]; [9]
  IL-10: 0 pg/mL
[5]; Control (medium), non-treated 257
  IL-23: 227 pg/mL
[5]; LPS 0.6 ng/ml, non-treated 553
  IL-23: 356 pg/mL
[5]; LPS 20 ng/ml, non-treated 510
  IL-23: 373 pg/mL
[5]; LTA 5 μg/ml, non-treated 762
  IL-23: 349 pg/mL

## hBD1: human beta defensin 1, SEQ ID NO:1, obtained from Peptide Institute Inc. (DHYNCVSSGGQCLYSACPIFTKIQGTCYRGKAKCCK; ends and bridges not checked; cysteine pairing not given here; listed as Homo sapiens)
[3]; [10]
  IL-1β % of control: 69%
[3]; [11]
  IL-1β: 512 pg/mL
[3]; [12]
  IL-1β % of control: 82%
[3]; [13]
  IL-1β: 2087 pg/mL
[3]; [14]
  IL-1β: 0 pg/mL
[3]; [15]
  IL-1β % of control: 54%
[3]; test compound 10 μg/ml, LPS 0.6 ng/ml, non-treated 741
  IL-1β: 401 pg/mL
[3]; [16]
  IL-1β % of control: 75%
[3]; test compound 10 μg/ml, LPS 20 ng/ml, non-treated 2544
  IL-1β: 1913 pg/mL
[3]; [17]
  IL-1β: 0 pg/mL
[3]; [18]
  IL-1β % of control: 41%
[3]; test compound 40 μg/ml, LPS 0.6 ng/ml, non-treated 741
  IL-1β: 302 pg/mL
[3]; [19]
  IL-1β % of control: 63%
[3]; test compound 40 μg/ml, LPS 20 ng/ml, non-treated 2544
  IL-1β: 1599 pg/mL
[3]; [20]
  IL-1β: 0 pg/mL
[1]; [10]
  TNF % of control: 65%
[1]; [21]
  TNF: 474 pg/mL
[1]; [12]
  TNF % of control: 64%
[1]; [22]
  TNF: 1395 pg/mL
[1]; [23]
  TNF: 1 pg/mL
[1]; [15]
  TNF % of control: 28%
[1]; test compound 10 μg/ml, LPS 0.6 ng/ml, non-treated 728
  TNF: 203 pg/mL
[1]; [16]
  TNF % of control: 61%
[1]; test compound 10 μg/ml, LPS 20 ng/ml, non-treated 2164
  TNF: 1311 pg/mL
[1]; test compound 10 μg/ml, Medium, non-treated 1
  TNF: 0 pg/mL
[1]; [18]
  TNF % of control: 13%
[1]; test compound 40 μg/ml, LPS 0.6 ng/ml, non-treated 728
  TNF: 91 pg/mL
[1]; [19]
  TNF % of control: 46%
[1]; test compound 40 μg/ml, LPS 20 ng/ml, non-treated 2164
  TNF: 999 pg/mL
[1]; test compound 40 μg/ml, Medium, non-treated 1
  TNF: 0 pg/mL
[4]; [10]
  IL-10 % of control: 108%
[4]; [24]
  IL-10: 71 pg/mL
[4]; [12]
  IL-10 % of control: 85%
[4]; test compound 1 μg/ml, LPS 20 ng/ml, non-treated 111
  IL-10: 95 pg/mL
[4]; [14]
  IL-10: 0 pg/mL
[4]; [15]
  IL-10 % of control: 114%
[4]; test compound 10 μg/ml, LPS 0.6 ng/ml, non-treated 66
  IL-10: 76 pg/mL
[4]; [16]
  IL-10 % of control: 90%
[4]; test compound 10 μg/ml, LPS 20 ng/ml, non-treated 111
  IL-10: 100 pg/mL
[4]; [17]
  IL-10: 0 pg/mL
[4]; [18]
  IL-10 % of control: 104%
[4]; test compound 40 μg/ml, LPS 0.6 ng/ml, non-treated 66
  IL-10: 69 pg/mL
[4]; [19]
  IL-10 % of control: 102%
[4]; test compound 40 μg/ml, LPS 20 ng/ml, non-treated 111
  IL-10: 113 pg/mL
[4]; [20]
  IL-10: 0 pg/mL

## hBD3: human beta defensin 3, SEQ ID NO:3, obtained from Peptide Institute Inc.
[3]; [10]
  IL-1β % of control: 45%
[3]; [11]
  IL-1β: 331 pg/mL
[3]; [12]
  IL-1β % of control: 22%
[3]; [13]
  IL-1β: 568 pg/mL
[3]; [14]
  IL-1β: 0 pg/mL
[1]; [10]
  TNF % of control: 73%
[1]; [21]
  TNF: 528 pg/mL
[1]; [12]
  TNF % of control: 21%
[1]; [22]
  TNF: 451 pg/mL
[1]; [23]
  TNF: 0 pg/mL
[6]
  Toxicity to the cells: toxic to the cells
[4]; [10]
  IL-10 % of control: 107%
[4]; [24]
  IL-10: 71 pg/mL
[4]; [12]
  IL-10 % of control: 137%
[4]; [14]
  IL-10: 0 pg/mL

## mBD3: mouse beta defensin 3, SEQ ID NO:6, prepared with the same protocol as hBD2 (KINNPVSCLRKGGRCWNRCIGNTRQIGSCGVPFLKCCKRK; ends and bridges not checked; cysteine pairing not given here; listed as Mus musculus)
[2]; mBD3 1 μg/ml, LPS 20 ng/ml, untreated 2063
  TNF: 1600 pg/mL
[2]; mBD3 1 μg/ml, Medium, untreated 578
  TNF: 347 pg/mL
[2]; mBD3 10 μg/ml, LPS 20 ng/ml, untreated 2063
  TNF: 297 pg/mL
[2]; mBD3 10 μg/ml, Medium, untreated 578
  TNF: 180 pg/mL
[2]; mBD3 100 μg/ml, LPS 20 ng/ml, untreated 2063
  TNF: 195 pg/mL
[2]; mBD3 100 μg/ml, Medium, untreated 578
  TNF: 182 pg/mL
[1]; Table 23
  Secretion of TNF from human PBMCs: downregulating the secretion of TNF from human PBMCs to the same extend as hBD2 and dexamethason
